From ChEMBL document CHEMBL4622849, “Discovery of ethyl ketone-based HDACs 1, 2, and 3 selective inhibitors for HIV latency reactivation” (Bioorg Med Chem Lett, 2020)

Assays:
[1] = test system: Human immunodeficiency virus; experiment: microbe, parasite or virus in culture; assay type: functional, organism-based; conditions: Human immunodeficiency virus 1, 2C4
Description: Reactivation of HIV latency infected in human 2C4 cells in presence of 0.1 % NHS by luciferase reporter gene assay

[2] = test system: Human immunodeficiency virus; experiment: microbe, parasite or virus in culture; assay type: functional, organism-based; conditions: Human immunodeficiency virus 1, 2C4; remark: listed apart in the source
Histone deacetylase 2 = Histone deacetylase 2 (Homo sapiens, UniProt Q92769)
Description: Inhibition of HDAC2 (unknown origin)

[3] = target: T1, Protein deacetylase HDAC6 (Homo sapiens, UniProt Q9UBN7); assay type: ADME
T1 sequence (Q9UBN7 whole entry): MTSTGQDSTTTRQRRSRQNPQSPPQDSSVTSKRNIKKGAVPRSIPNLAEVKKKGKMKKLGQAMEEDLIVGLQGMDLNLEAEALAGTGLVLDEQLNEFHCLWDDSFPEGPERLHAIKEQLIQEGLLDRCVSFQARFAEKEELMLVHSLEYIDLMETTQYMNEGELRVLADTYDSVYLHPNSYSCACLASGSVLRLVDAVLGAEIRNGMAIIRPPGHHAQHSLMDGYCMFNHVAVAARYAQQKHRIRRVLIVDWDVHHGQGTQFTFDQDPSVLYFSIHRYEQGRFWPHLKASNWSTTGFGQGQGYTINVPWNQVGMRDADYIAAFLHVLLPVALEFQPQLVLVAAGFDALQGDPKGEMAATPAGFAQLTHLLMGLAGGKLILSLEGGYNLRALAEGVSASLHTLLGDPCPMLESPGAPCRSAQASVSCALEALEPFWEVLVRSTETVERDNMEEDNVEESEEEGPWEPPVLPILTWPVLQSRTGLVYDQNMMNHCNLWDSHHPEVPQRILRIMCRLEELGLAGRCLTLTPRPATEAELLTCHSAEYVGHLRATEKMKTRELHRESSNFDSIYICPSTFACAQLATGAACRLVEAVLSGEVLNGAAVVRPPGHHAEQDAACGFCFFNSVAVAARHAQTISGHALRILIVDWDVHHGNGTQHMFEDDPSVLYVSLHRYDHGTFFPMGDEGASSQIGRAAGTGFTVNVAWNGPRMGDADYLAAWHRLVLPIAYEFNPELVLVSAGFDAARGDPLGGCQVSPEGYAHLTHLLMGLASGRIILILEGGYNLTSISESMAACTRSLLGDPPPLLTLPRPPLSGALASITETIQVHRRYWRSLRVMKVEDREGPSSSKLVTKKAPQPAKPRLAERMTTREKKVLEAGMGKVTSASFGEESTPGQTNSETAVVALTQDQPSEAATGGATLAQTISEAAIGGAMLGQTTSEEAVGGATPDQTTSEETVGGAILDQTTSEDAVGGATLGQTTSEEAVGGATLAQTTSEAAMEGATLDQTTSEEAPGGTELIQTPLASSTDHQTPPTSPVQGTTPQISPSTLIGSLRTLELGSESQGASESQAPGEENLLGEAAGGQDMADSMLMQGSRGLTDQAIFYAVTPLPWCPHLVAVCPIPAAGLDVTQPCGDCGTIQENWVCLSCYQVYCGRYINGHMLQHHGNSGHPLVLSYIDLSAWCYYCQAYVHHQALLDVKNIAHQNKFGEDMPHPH
Description: Inhibition of HDAC6 (unknown origin)

Histone deacetylase 8 = target: T2, Histone deacetylase 8 (Homo sapiens, UniProt Q9BY41); assay type: ADME
T2 sequence (Q9BY41 whole entry): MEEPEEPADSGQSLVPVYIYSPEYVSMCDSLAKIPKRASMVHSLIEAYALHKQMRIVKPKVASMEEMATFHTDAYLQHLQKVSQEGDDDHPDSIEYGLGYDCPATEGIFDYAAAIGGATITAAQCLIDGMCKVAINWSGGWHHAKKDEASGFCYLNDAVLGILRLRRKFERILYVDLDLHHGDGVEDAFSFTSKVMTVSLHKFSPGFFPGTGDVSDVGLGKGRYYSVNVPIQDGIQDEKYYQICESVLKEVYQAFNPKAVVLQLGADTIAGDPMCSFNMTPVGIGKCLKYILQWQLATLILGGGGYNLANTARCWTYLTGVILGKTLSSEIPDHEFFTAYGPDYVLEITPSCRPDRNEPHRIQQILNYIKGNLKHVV
Description: Inhibition of HDAC8 (unknown origin)

Histone deacetylase 1 = Histone deacetylase 1 (Homo sapiens, UniProt Q13547)
Description: Inhibition of HDAC1 (unknown origin)

[4] = Half life in Wistar Han rat at 2 mg/kg, iv or 10 mg/kg, po; assay type: ADME, organism-based; conditions: in vivo
[5] = AUC in Wistar Han rat at 10 mg/kg, po; assay type: ADME, organism-based; conditions: in vivo
[6] = AUC in Beagle dog at 2 mg/kg, po; assay type: ADME, organism-based, Canis lupus familiaris; conditions: in vivo
[7] = Half life in Beagle dog at 1 mg/kg, iv or 2 mg/kg, po; assay type: ADME, organism-based, Canis lupus familiaris; conditions: in vivo
[8] = Cmax in Wistar Han rat at 10 mg/kg, po; assay type: ADME, organism-based; design: dose 10 mg/kg, route oral; conditions: in vivo
[9] = Clearance in Wistar Han rat at 2 mg/kg, iv or 10 mg/kg, po; assay type: ADME, organism-based; conditions: in vivo
[10] = Oral bioavailability in Beagle dog at 2 mg/kg; assay type: ADME, organism-based, Canis lupus familiaris; conditions: in vivo
[11] = Cmax in Beagle dog at 2 mg/kg, po; assay type: ADME, organism-based, Canis lupus familiaris; design: dose 2 mg/kg, route oral; conditions: in vivo
[12] = Clearance in Beagle dog at 1 mg/kg, iv or 2 mg/kg, po; assay type: ADME, organism-based, Canis lupus familiaris; conditions: in vivo
[13] = Oral bioavailability in Wistar Han rat at 10 mg/kg; assay type: ADME, organism-based; conditions: in vivo

Chain of Histone deacetylase 1 (Q13547 whole entry): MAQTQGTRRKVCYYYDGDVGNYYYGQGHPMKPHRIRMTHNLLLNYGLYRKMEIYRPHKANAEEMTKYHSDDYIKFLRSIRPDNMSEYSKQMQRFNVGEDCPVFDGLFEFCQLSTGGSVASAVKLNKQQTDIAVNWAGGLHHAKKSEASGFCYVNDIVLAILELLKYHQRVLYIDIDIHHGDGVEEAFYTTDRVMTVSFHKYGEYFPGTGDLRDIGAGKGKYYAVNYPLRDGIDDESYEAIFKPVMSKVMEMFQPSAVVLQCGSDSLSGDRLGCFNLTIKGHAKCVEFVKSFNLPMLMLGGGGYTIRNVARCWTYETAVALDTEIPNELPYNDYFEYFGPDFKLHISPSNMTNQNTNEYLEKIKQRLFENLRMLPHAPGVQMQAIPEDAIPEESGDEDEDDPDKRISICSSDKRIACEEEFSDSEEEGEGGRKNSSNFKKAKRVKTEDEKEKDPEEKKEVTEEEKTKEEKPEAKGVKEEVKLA
Chain of Histone deacetylase 2 (Q92769 whole entry): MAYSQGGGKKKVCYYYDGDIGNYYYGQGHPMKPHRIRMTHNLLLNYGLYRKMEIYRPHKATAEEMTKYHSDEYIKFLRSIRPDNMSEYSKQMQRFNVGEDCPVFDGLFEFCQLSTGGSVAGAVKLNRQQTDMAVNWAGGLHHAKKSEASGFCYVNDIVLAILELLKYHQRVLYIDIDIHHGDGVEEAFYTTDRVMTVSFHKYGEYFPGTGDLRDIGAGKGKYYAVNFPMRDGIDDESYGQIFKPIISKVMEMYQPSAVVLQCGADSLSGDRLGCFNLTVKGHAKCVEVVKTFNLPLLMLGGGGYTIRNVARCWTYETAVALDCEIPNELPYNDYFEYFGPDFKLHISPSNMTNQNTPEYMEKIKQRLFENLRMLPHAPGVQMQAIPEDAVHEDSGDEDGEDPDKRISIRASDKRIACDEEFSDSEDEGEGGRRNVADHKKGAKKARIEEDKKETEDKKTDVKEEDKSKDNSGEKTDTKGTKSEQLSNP

CCC(=O)CCCCC[C@H](NC(=O)C1CN(C)C1)c1ncc(-c2cc3ccccc3nc2OC)[nH]1
EC50 [1]: 110 nM
EC50 [2]: 477 nM

CCC(=O)CCCCC[C@H](NC(=O)[C@H]1CC12CCN(CC(F)(F)F)CC2)c1ncc(-c2cc3ccccc3nc2OC)[nH]1
EC50 [1]: 112 nM
EC50 [2]: 719 nM

CCC(=O)CCCCC[C@H](NC(=O)[C@H]1CC12CCCN(C)C2)c1ncc(-c2cc3ccccc3nc2OC)[nH]1 (some centres undefined)
EC50 [1]: 81 nM
EC50 [2]: 324 nM

CCC(=O)CCCCC[C@H](NC(=O)C1=NOC2(CCN(C)CC2)C1)c1ncc(-c2cc3ccccc3nc2OC)[nH]1
EC50 [1]: 126 nM
IC50 (Histone deacetylase 2): 5.2 nM
EC50 [2]: 941 nM

CCC(=O)CCCCC[C@H](NC(=O)[C@H]1C[C@@]12CCN(C)C2)c1ncc(-c2cc3ccccc3nc2OC)[nH]1
EC50 [1]: 73 nM
EC50 [2]: 321 nM

CCC(=O)CCCCC[C@H](NC(=O)[C@H]1CC12CCN(CC)CC2)c1nnc(-c2cc3ccccc3nc2OC)[nH]1
IC50 [3]: 95 nM
EC50 [1]: 1230 nM
IC50 (Histone deacetylase 8): 2990 nM
EC50 [2]: 1880 nM

CCC(=O)CCCCC[C@H](NC(=O)[C@H]1CC12CCN(C(C)=O)CC2)c1ncc(-c2cc3ccccc3nc2OC)[nH]1
IC50 [3]: 1170 nM
EC50 [1]: 1560 nM
IC50 (Histone deacetylase 8): 2270 nM
EC50 [2]: 9850 nM

CCC(=O)CCCCC[C@H](NC(=O)[C@H]1CC12CN(C)C2)c1ncc(-c2cc3ccccc3nc2OC)[nH]1
IC50 [3]: 299 nM
EC50 [1]: 155 nM
IC50 (Histone deacetylase 8): 2020 nM
EC50 [2]: 633 nM

CCC(=O)CCCCC[C@H](NC(=O)[C@@H]1CC12CCCN(C)C2)c1ncc(-c2cc3ccccc3nc2OC)[nH]1 (some centres undefined)
EC50 [1]: 257 nM
EC50 [2]: 1010 nM

CCC(=O)CCCCC[C@H](NC(=O)C1CCC2(CC1)CN(C)C2)c1ncc(-c2cc3ccccc3nc2OC)[nH]1
EC50 [1]: 85 nM
EC50 [2]: 687 nM

CCC(=O)CCCCC[C@H](NC(=O)[C@H]1CCC12CCN(CC)CC2)c1ncc(-c2cc3ccccc3nc2OC)[nH]1
EC50 [1]: 43 nM
EC50 [2]: 110 nM

CCC(=O)CCCCC[C@H](NC(=O)[C@@H]1CC12CN(C)C2)c1ncc(-c2cc3ccccc3nc2OC)[nH]1
EC50 [1]: 74 nM
EC50 [2]: 287 nM

CCC(=O)CCCCC[C@H](NC(=O)CC1CC2(C1)CN(C)C2)c1ncc(-c2cc3ccccc3nc2OC)[nH]1
IC50 (Histone deacetylase 1): 1 nM
EC50 [1]: 130 nM
EC50 [2]: 810 nM

CCC(=O)CCCCC[C@H](NC(=O)[C@H]1CC12CCN(Cc1cccnc1)CC2)c1ncc(-c2cc3ccccc3nc2OC)[nH]1
EC50 [1]: 62 nM
EC50 [2]: 277 nM

CCC(=O)CCCCC[C@H](NC(=O)[C@@H]1CC12CCN(C)CC2)c1ncc(-c2cc3ccccc3nc2OC)[nH]1
EC50 [1]: 339 nM
EC50 [2]: 1370 nM

CCCN1CCC2(CC1)C[C@@H]2C(=O)N[C@@H](CCCCCC(=O)CC)c1ncc(-c2cc3ccccc3nc2OC)[nH]1
EC50 [1]: 154 nM
EC50 [2]: 895 nM

CCC(=O)CCCCC[C@H](NC(=O)[C@@H]1C[C@@]12CCN(C)C2)c1ncc(-c2cc3ccccc3nc2OC)[nH]1
EC50 [1]: 309 nM
EC50 [2]: 1150 nM

CCC(=O)CCCCC[C@H](NC(=O)[C@H]1CC12CCN(C)CC2)c1nnc(-c2cc3ccccc3nc2OC)[nH]1
IC50 [3]: 92 nM
EC50 [1]: 1620 nM
IC50 (Histone deacetylase 8): 1930 nM
EC50 [2]: 2580 nM

CCC(=O)CCCCC[C@H](NC(=O)C1CC2(C1)CN(C)C2)c1ncc(-c2cc3ccccc3nc2OC)[nH]1
EC50 [1]: 130 nM
EC50 [2]: 840 nM

CCC(=O)CCCCC[C@H](NC(=O)[C@H]1CC12CCC(N(C)C)CC2)c1ncc(-c2cc3ccccc3nc2OC)[nH]1 (some centres undefined)
IC50 [3]: 363 nM
EC50 [1]: 36 nM
IC50 (Histone deacetylase 8): 75 nM
EC50 [2]: 60 nM

CCC(=O)CCCCC[C@H](NC(=O)[C@H]1CC12CCN(C)CC2)c1ncc(-c2cc3ccccc3nc2OC)[nH]1
half-life [4]: 6.6 h
AUC [5]: 2.1 µM·h
AUC [6]: 1.8 µM·h
half-life [7]: 7.2 h
Cmax [8]: 630 nM
clearance [9]: 22 mL/min/kg
bioavailability [10]: 22.4%
IC50 [3]: 157 nM
Cmax [11]: 690 nM
clearance [12]: 8.5 mL/min/kg
EC50 [1]: 26 nM
bioavailability [13]: 13%
EC50 [2]: 83 nM

CCC(=O)CCCCC[C@H](NC(=O)[C@H]1CC12CCN(CCC(F)(F)F)CC2)c1ncc(-c2cc3ccccc3nc2OC)[nH]1
EC50 [1]: 78 nM
EC50 [2]: 343 nM

CCC(=O)CCCCC[C@H](NC(=O)[C@H]1CC12CCN(C(C)C)CC2)c1ncc(-c2cc3ccccc3nc2OC)[nH]1
EC50 [1]: 32 nM
EC50 [2]: 57 nM

CCC(=O)CCCCC[C@H](NC(=O)[C@H]1C[C@]12CCN(C)C2)c1ncc(-c2cc3ccccc3nc2OC)[nH]1
EC50 [1]: 72 nM
EC50 [2]: 232 nM

CCC(=O)CCCCC[C@H](NC(=O)[C@H]1CC12CCN(Cc1ccccc1)CC2)c1ncc(-c2cc3ccccc3nc2OC)[nH]1
EC50 [1]: 74 nM
EC50 [2]: 175 nM

CCC(=O)CCCCC[C@H](NC(=O)[C@H]1CC12CCN(C)CC2)c1nnc(-c2cc3ccccc3nc2OC)o1
EC50 [1]: 689 nM
IC50 (Histone deacetylase 8): 45000 nM
EC50 [2]: 691 nM

CCC(=O)CCCCC[C@H](NC(=O)[C@@H]1C[C@]12CCN(C)C2)c1ncc(-c2cc3ccccc3nc2OC)[nH]1
IC50 [3]: 149 nM
EC50 [1]: 261 nM
EC50 [2]: 1140 nM

CCC(=O)CCCCC[C@H](NC(=O)[C@@H]1CC12CCOCC2)c1ncc(-c2cc3ccccc3nc2OC)[nH]1
EC50 [1]: 647 nM
EC50 [2]: 5040 nM

CCC(=O)CCCCC[C@H](NC(=O)[C@@H]1CC12CCC(N(C)C)CC2)c1ncc(-c2cc3ccccc3nc2OC)[nH]1 (some centres undefined)
IC50 [3]: 759 nM
EC50 [1]: 441 nM
IC50 (Histone deacetylase 8): 5580 nM
EC50 [2]: 1140 nM

CCC(=O)CCCCC[C@H](NC(=O)[C@@H]1CCC12CCN(CC)CC2)c1ncc(-c2cc3ccccc3nc2OC)[nH]1
IC50 [3]: 518 nM
EC50 [1]: 161 nM
IC50 (Histone deacetylase 8): 2330 nM
EC50 [2]: 720 nM

CCC(=O)CCCCC[C@H](NC(=O)[C@H]1CC12CCN(C)CC2)c1ncc(-c2cc3ccccc3nc2OC)o1
half-life [4]: 3.2 h
AUC [5]: 6.77 µM·h
Cmax [8]: 700 nM
clearance [9]: 11 mL/min/kg
IC50 (Histone deacetylase 1): 1.5 nM
EC50 [1]: 194 nM
IC50 (Histone deacetylase 2): 4.7 nM
bioavailability [13]: 20.6%
EC50 [2]: 310 nM

CCC(=O)CCCCC[C@H](NC(=O)[C@H]1CC12CCN(Cc1ccc(OC)cc1)CC2)c1ncc(-c2cc3ccccc3nc2OC)[nH]1
EC50 [1]: 113 nM
EC50 [2]: 180 nM

CCC(=O)CCCCC[C@H](NC(=O)[C@H]1CC12CCN(CC)CC2)c1ncc(-c2cc3ccccc3nc2OC)o1
half-life [4]: 8.6 h
AUC [5]: 14 µM·h
Cmax [8]: 1430 nM
clearance [9]: 15 mL/min/kg
EC50 [1]: 111 nM
bioavailability [13]: 68.9%
EC50 [2]: 151 nM

CCC(=O)CCCCC[C@H](NC(=O)[C@H]1CC12CCN(CC1CC1)CC2)c1ncc(-c2cc3ccccc3nc2OC)[nH]1
EC50 [1]: 15 nM
EC50 [2]: 30 nM

CCC(=O)CCCCC[C@H](NC(=O)[C@H]1CC12CCOCC2)c1ncc(-c2cc3ccccc3nc2OC)[nH]1
EC50 [1]: 234 nM
EC50 [2]: 1790 nM

CCC(=O)CCCCC[C@H](NC(=O)[C@H]1CC12CCN(C(C)C)CC2)c1ncc(-c2cc3ccccc3nc2OC)o1
IC50 (Histone deacetylase 1): 3.5 nM
EC50 [1]: 161 nM
EC50 [2]: 309 nM
